row,Structure (SMILES),melting point
1,CC(C)c1ccc(Sc2c(/C=C/[C@@H]3C[C@@H](O)CC(=O)O3)cnc3cc(Cl)c(F)cc23)cc1 [Compound A12],175 to 177 °C
2,COc1cccc(Sc2cc3ncc(/C=C/[C@@H]4C[C@@H](O)CC(=O)O4)c(Sc4cccc(OC)c4)c3cc2Sc2cccc(OC)c2)c1 [Compound A31],57 to 59 °C

# Results, then the compound that gave them:
row,melting point,Structure (SMILES)
1,130 to 132 °C,O=C1C[C@H](O)C[C@@H](/C=C/c2cnc3ccccc3c2Sc2ccc(F)cc2)O1 [Compound A2]
2,147 to 148 °C,CC(C)c1ccc(Sc2c(/C=C/[C@@H]3C[C@@H](O)CC(=O)O3)cnc3ccccc23)cc1 [Compound A4]
3,182 to 184 °C,CC(C)c1ccc(Sc2cc3ncc(/C=C/[C@@H]4C[C@@H](O)CC(=O)O4)c(Sc4ccc(C(C)C)cc4)c3cc2Sc2ccc(C(C)C)cc2)cc1 [Compound A32]

# Reference: US8349867B2, “Quinoline compounds, intermediates, preparation methods and uses thereof” (Shanghai Institute of Pharmaceutical Industry, priority 2006, dated 2013)
